One may read the IC50 as the concentration needed to halve the response being measured.

Some results are limits rather than exact numbers.

The target in one assay is T1, androgen receptor (AR) (Homo sapiens, UniProt P10275, T878A).
T1 construct: stably transfected eGFP-expressing LNCaP human prostate cancer cells (LN-ARR2PB-eGFP) containing an androgen responsive probasin-derived promoter; endogenous in cells; host or cells: LNCaP (LN-ARR2PB-eGFP)
T1 sequence (P10275 1-920 T878A): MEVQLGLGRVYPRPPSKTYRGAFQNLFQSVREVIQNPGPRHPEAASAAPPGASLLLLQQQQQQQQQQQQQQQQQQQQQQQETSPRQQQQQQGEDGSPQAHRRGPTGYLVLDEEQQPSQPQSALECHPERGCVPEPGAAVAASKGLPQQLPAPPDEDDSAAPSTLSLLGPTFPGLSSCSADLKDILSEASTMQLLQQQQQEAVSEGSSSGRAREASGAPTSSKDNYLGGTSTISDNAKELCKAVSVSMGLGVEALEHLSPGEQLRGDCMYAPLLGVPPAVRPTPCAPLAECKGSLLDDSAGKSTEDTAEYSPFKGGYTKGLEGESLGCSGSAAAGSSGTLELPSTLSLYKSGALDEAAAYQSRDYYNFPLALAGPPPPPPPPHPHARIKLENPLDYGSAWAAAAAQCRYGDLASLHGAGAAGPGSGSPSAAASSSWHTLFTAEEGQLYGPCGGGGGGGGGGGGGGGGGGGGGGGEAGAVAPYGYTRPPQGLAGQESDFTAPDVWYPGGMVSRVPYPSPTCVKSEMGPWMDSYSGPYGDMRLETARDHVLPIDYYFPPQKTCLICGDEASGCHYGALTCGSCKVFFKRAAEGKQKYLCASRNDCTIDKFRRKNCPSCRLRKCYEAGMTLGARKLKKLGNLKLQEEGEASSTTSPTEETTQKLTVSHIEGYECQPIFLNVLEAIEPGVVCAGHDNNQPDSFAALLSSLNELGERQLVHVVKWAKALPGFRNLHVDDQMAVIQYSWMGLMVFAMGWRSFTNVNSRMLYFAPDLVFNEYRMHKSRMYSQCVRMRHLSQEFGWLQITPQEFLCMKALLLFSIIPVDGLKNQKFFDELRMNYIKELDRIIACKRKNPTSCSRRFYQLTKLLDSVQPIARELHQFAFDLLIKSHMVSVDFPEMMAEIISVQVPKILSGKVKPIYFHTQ
Description: eGFP cellular AR transcription assay. The format is cell-based. The note with it: LN-ARR2PB-eGFP LNCaP cells, 0.1 nM R1881, 3 days, 0-100 μM compound; read-out: IC50 (eGFP). The procedure: After 5 days, the cells were plated into a 96-well plate (35,000 cells/well) with 0.1 nM of the synthetic androgen R1881 and increasing concentrations (0-100 μM) of compound.
After 5 days, the cells were plated into a 96-well plate (35,000 cells/well) with 0.1 nM R1881 and increasing concentrations (0-100 μM) of compound.
In this assay, the expression of eGFP is under the control of an androgen responsive probasin-derived promoter and can quantify AR transcriptional activity.
As for `CC1(C)c2ccccc2NC1c1c[nH]c2ccc(N)cc12` (stereo not drawn) [13 538], the IC50 was found to be 7.7 µM.
Consider `CC1(C)c2cc(Br)ccc2NC1c1c[nH]c2cc(O)ccc12` (stereo not drawn) [13 542], for which the 50% inhibitory concentration (IC50) amounted to 5.7 µM.
On the same count and under the same terms, then `CC1(C)c2ccccc2NC1c1c[nH]c2cc(OCc3ccccc3)ccc12` (stereo not drawn) [13 544], with 11.4 µM; and `Cc1cc(-c2c[nH]c3ccccc23)nc2ccccc12` [13 547], with 5.6 µM; and `c1ccc(COc2ccc3c(C4Nc5ccccc5C45CCCCC5)c[nH]c3c2)cc1` (stereo not drawn) [13 550], with 11.8 µM.
Same read-out and setting: then `Oc1ccc2c(C3Nc4ccccc4C34CCCCC4)c[nH]c2c1` (stereo not drawn) [13 551], with 15.5 µM.
Same read-out and setting: then `CC1(C)c2ccccc2NC1c1c[nH]c2c(CO)cccc12` (stereo not drawn) [13 558], with 1.6 µM; and `c1ccc2c(c1)N=C(c1c[nH]c3ncccc13)C21CCCCC1` [13 559], with 6.6 µM; and `CC1(C)c2ccccc2NC1c1c[nH]c2ncccc12` (stereo not drawn) [13 560], with 2.3 µM.
Consider `CC1(C)c2ccccc2NC1c1c[nH]c2cnccc12` (stereo not drawn) [13 561], for which the IC50 came out at 10.7 µM.
On the same count and under the same terms, then `Fc1cccc2c(-c3ccc4ccccc4n3)c[nH]c12` [13 569], with 1.6 µM; and `Cc1[nH]c2ccccc2c1-c1ccc2ccccc2n1` [13 570], with 20 µM.
The same measure, in the same setting: then `Cn1cc(-c2ccc3ccccc3n2)c2ccccc21` [13 571], with 1.1 µM; and `c1ccc2nc(-n3ncc4ccccc43)ccc2c1` [13 572], with 0.7 µM; and `FC(F)(F)c1ccc2c(-c3ccc4ccccc4n3)c[nH]c2c1` [13 580], with 2.9 µM.
With `c1cncc(-c2c[nH]c3cnccc23)c1` [13 581], the IC50 came out at 4.9 µM.
As for `c1ccc(COc2ccc3c(-c4ccc5ccccc5n4)c[nH]c3c2)cc1` [13 589], the 50% inhibitory concentration (IC50) is 5.3 µM.

Staying with this assay, now noted: LN-ARR2PBeGFP LNCaP cells, 0.1 nM R1881, 3 days incubation; read-out: eGFP IC50.
Regarding `O=C(Nc1ccc(-n2cnc3ccccc32)cc1)c1ccco1` [Compound 6054], the concentration for half-maximal inhibition (IC50) came to 3.4 µM.
Still for that read-out and setting: the value for `O=C(Nc1n[nH]c2ccc(Br)cc12)c1cc(Br)ccc1O` [Compound 9026] was 11.7 µM; that for `O=C(Nc1n[nH]c2cc(Br)ccc12)c1cc(Br)ccc1O` [Compound 9027] was 7.72 µM.
The same measure, in the same setting: the value for `O=C(Nc1nc2cc(Br)ccc2s1)c1cc(Br)ccc1O` [Compound 9028] was 10 µM; that for `O=C(/C=C/c1c[nH]c2cc(Br)ccc12)c1cc2ccccc2[nH]1` [Compound 9034] was 20 µM.
On the same count and under the same terms, then `O=C(Nc1cccc(Br)c1O)c1cc2ccc(Br)cc2[nH]1` [Compound 9037], with 4.09 µM.
Regarding `O=C(Nc1nc2ccc(Br)cc2s1)c1ccccc1O` [Compound 9039], the half-maximal inhibitory concentration (IC50) is over 200 µM.
The same measure, in the same setting: the value for `O=C(Nc1nc2ccc(Br)cc2s1)c1ccc(Br)cc1O` [Compound 9040] was 39.1 µM; that for `Brc1ccc2cc(CCc3cc4ccc(Br)cc4[nH]3)[nH]c2c1` [Compound 9043] was 2.5 µM.
The same measure, in the same setting: the value for `c1ccc2[nH]c(-c3n[nH]c4ccccc34)nc2c1` [Compound 13036] was 1.6 µM; that for `Brc1ccc2nc(-c3c[nH]c4ccccc34)cn2c1` [Compound 13050] was 9.72 µM; that for `Clc1ccc(Nc2nc3ccccc3[nH]2)cc1Cl` [Compound 13186] was 5 µM.
The same measure, in the same setting: then `Cn1cc(CCc2ccncc2)c2ccccc21` [Compound 13202], with 2.5 µM; and `O=Nn1cc(-c2cc3ccccc3n2N=O)c2ccccc21` [Compound 13206], with 1.8 µM; and `O=c1[nH]c2ccccc2n1-c1nc2ccccc2[nH]1` [Compound 13214], with 2.2 µM.
As for `Clc1ccc(N/N=C2\CCc3ccccc32)cc1Cl` [Compound 13215], the half-inhibitory concentration (IC50) was determined as 2 µM.
Same read-out and setting: then `Cc1cccn2cc(-c3c[nH]c4ccccc34)nc12` [Compound 13216], with 2.8 µM; and `c1ccc2c(c1)CCN2c1nc2ccccc2o1` [Compound 13220], with 0.7 µM.

The assay is the same for the next values; noted with them: eGFP IC50, LN-ARR2PBeGFP LNCaP cells, 0.1 nM R1881, 3 days incubation.
For `Oc1ccc(Cn2c(-c3ccc(O)cc3)nc3ccccc32)cc1` [Compound 13029], the half-maximal inhibitory concentration (IC50) was found to be 3.22 µM.

Source of the values: patent US10633338B2, “Binding Function 3 (BF3) site compounds as therapeutics and methods for their use” (THE UNIVERSITY OF BRITISH COLUMBIA, priority 2014, dated 2020).
